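1) Cells in 96-well plates. 2) Compound, 48 h, 5 concentrations. 3) Linear interpolation between surrounding doses. 4) Unreached endpoint = highest concentration. The concentration for 50% growth inhibition is given as GI50. Definition used: TGI = concentration required for complete inhibition of growth.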
Columns and labels:
Assay in all cases: NCI-60 cell line screen, 48 h
[1] = system: 786-0 renal
[2] = system: A498 renal
[3] = system: A549 NSCLC
[4] = system: ACHN renal
[5] = system: BT-549 breast
[6] = system: CAKI-1 renal
[7] = system: CCRF-CEM leukemia
[8] = system: COLO 205 colon
[9] = system: DU-145 prostate
[10] = system: EKVX NSCLC
[11] = system: HCC-2998 colon
[12] = system: HCT-116 colon
[13] = system: HCT-15 colon
[14] = system: HL-60(TB) leukemia
[15] = system: HOP-62 NSCLC
[16] = system: HOP-92 NSCLC
[17] = system: HS 578T breast
[18] = system: HT29 colon
[19] = system: IGROV1 ovarian
[20] = system: K-562 leukemia
[21] = system: KM12 colon
[22] = system: LOX IMVI melanoma
[23] = system: M14 melanoma
[24] = system: MALME-3M melanoma
[25] = system: MCF7 breast
[26] = system: MDA-MB-231 breast
[27] = system: MOLT-4 leukemia
[28] = system: NCI-H226 lung
[29] = system: NCI-H23 lung
[30] = system: NCI-H460 lung
[31] = system: NCI-H522 lung
[32] = system: NCI/ADR-RES ovarian
[33] = system: OVCAR-3 ovarian
[34] = system: OVCAR-4 ovarian
[35] = system: OVCAR-5 ovarian
[36] = system: OVCAR-8 ovarian
[37] = system: PC-3 prostate
[38] = system: RPMI-8226 leukemia
[39] = system: RXF 393 renal
[40] = system: SF-268 CNS
[41] = system: SF-295 CNS
[42] = system: SF-539 CNS
[43] = system: SK-MEL-2 melanoma
[44] = system: SK-MEL-28 melanoma
[45] = system: SK-MEL-5 melanoma
[46] = system: SK-OV-3 ovarian
[47] = system: SNB-19 CNS
[48] = system: SNB-75 CNS
[49] = system: SR leukemia
[50] = system: SW-620 colon
[51] = system: T-47D breast
[52] = system: TK-10 renal
[53] = system: U251 CNS
[54] = system: UACC-257 melanoma
[55] = system: UACC-62 melanoma
[56] = system: UO-31 renal
[57] = system: MDA-MB-435
[58] = system: SN12C renal

Cn1cc(-c2cc(-c3cn(C)c4ccc(Cl)cc34)[nH]n2)c2cc(Cl)ccc21
GI50 [1]: 3.41 µM | TGI [1]: 11.4 µM | GI50 [2]: 2.44 µM | TGI [2]: 9.79 µM | GI50 [3]: 3.24 µM | TGI [3]: 14.4 µM | GI50 [4]: 3.23 µM | TGI [4]: 12.8 µM | GI50 [5]: 2.03 µM | TGI [5]: 5.24 µM | GI50 [6]: 1.7 µM | TGI [6]: 6.05 µM | GI50 [7]: 6.4 µM | TGI [7]: 23.8 µM | GI50 [8]: 2.22 µM | TGI [8]: 5.35 µM | GI50 [9]: 9.6 µM | TGI [9]: > 100 µM | GI50 [10]: 3.15 µM | TGI [10]: 15 µM | GI50 [11]: 1.71 µM | TGI [11]: 3.84 µM | GI50 [12]: 3.82 µM | TGI [12]: 15.8 µM | GI50 [13]: 3.01 µM | TGI [13]: 15.1 µM | GI50 [14]: 4.45 µM | TGI [14]: 18.1 µM | GI50 [15]: 7.98 µM | TGI [15]: 94.8 µM | GI50 [16]: 1.86 µM | TGI [16]: 4.74 µM | GI50 [17]: 3.27 µM | TGI [17]: 20 µM | GI50 [18]: 3.57 µM | TGI [18]: 18.1 µM | GI50 [19]: 2.55 µM | TGI [19]: 6.37 µM | GI50 [20]: 2.78 µM | TGI [20]: 5.98 µM | GI50 [21]: 3.45 µM | TGI [21]: 22.9 µM | GI50 [22]: 1.7 µM | TGI [22]: 3.8 µM | GI50 [23]: 2.15 µM | TGI [23]: 5.3 µM | GI50 [24]: 9.64 µM | TGI [24]: 67.4 µM | GI50 [25]: 2.64 µM | TGI [25]: 6.89 µM | GI50 [26]: 2.95 µM | TGI [26]: 15.1 µM | GI50 [27]: 1.55 µM | TGI [27]: 11.8 µM | GI50 [28]: 5.29 µM | TGI [28]: > 100 µM | GI50 [29]: 2.48 µM | TGI [29]: 7.69 µM | GI50 [30]: 2.35 µM | TGI [30]: 5.47 µM | GI50 [31]: 1.75 µM | TGI [31]: 3.84 µM | GI50 [32]: 2.25 µM | TGI [32]: 6.59 µM | GI50 [33]: 4.41 µM | TGI [33]: 40.6 µM | GI50 [34]: 5.82 µM | TGI [34]: 28.4 µM | GI50 [35]: 3.11 µM | TGI [35]: 13 µM | GI50 [36]: 4.03 µM | TGI [36]: 19.8 µM | GI50 [37]: 3.05 µM | TGI [37]: 14.2 µM | GI50 [38]: 6.79 µM | TGI [38]: > 100 µM | GI50 [39]: 3.03 µM | TGI [39]: 16.2 µM | GI50 [40]: 5.29 µM | TGI [40]: 44.4 µM | GI50 [41]: 2.52 µM | TGI [41]: 8.65 µM | GI50 [42]: 1.81 µM | TGI [42]: 3.46 µM | GI50 [43]: 2.34 µM | TGI [43]: 6.13 µM | GI50 [44]: 4.8 µM | TGI [44]: 79.6 µM | GI50 [45]: 1.79 µM | TGI [45]: 3.6 µM | GI50 [46]: 5.81 µM | TGI [46]: > 100 µM | GI50 [47]: 4.09 µM | TGI [47]: 20.1 µM | GI50 [48]: 4.25 µM | TGI [48]: 30.6 µM | GI50 [49]: 2.36 µM | TGI [49]: 7.71 µM | GI50 [50]: 3.52 µM | TGI [50]: 14.6 µM | GI50 [51]: 4.06 µM | TGI [51]: 20.7 µM | GI50 [52]: 5.16 µM | TGI [52]: 23.7 µM | GI50 [53]: 3.37 µM | TGI [53]: 12.9 µM | GI50 [54]: 4.26 µM | TGI [54]: 34.2 µM | GI50 [55]: 1.63 µM | TGI [55]: 3.35 µM | GI50 [56]: 3.01 µM | TGI [56]: 14.8 µM

CCCCc1n(Cc2ccc3ccccc3c2)c2ccccc2[n+]1Cc1ccc2ccccc2c1
GI50 [4]: 1.4 µM | TGI [4]: 2.82 µM | GI50 [35]: 0.521 µM | TGI [35]: 1.9 µM | GI50 [54]: 0.925 µM | TGI [54]: 2.23 µM

CN(C)CCCOc1cccc(NC2=C(Cl)C(=O)C(Nc3cccc(OCCCN(C)C)c3)=C(Cl)C2=O)c1
GI50 [1]: 0.763 µM | TGI [1]: 2.09 µM | GI50 [2]: 1.59 µM | TGI [2]: 3.01 µM | GI50 [3]: 1.9 µM | TGI [3]: 3.5 µM | GI50 [4]: 1.78 µM | TGI [4]: 3.16 µM | GI50 [5]: 1.57 µM | TGI [5]: 2.93 µM | GI50 [6]: 1.45 µM | TGI [6]: 2.76 µM | GI50 [7]: 0.402 µM | TGI [7]: 3.26 µM | GI50 [8]: 1.56 µM | TGI [8]: 3.34 µM | GI50 [9]: 0.765 µM | TGI [9]: 2 µM | GI50 [10]: 1.19 µM | TGI [10]: 2.54 µM | GI50 [11]: 1.34 µM | TGI [11]: 2.81 µM | GI50 [12]: 0.286 µM | TGI [12]: 0.804 µM | GI50 [13]: 0.911 µM | TGI [13]: 2.45 µM | GI50 [15]: 1.93 µM | TGI [15]: 3.68 µM | GI50 [16]: 0.58 µM | TGI [16]: 1.28 µM | GI50 [17]: 2.11 µM | TGI [17]: 5.4 µM | GI50 [18]: 0.56 µM | TGI [18]: 1.59 µM | GI50 [20]: 0.307 µM | TGI [20]: 1.42 µM | GI50 [21]: 1.32 µM | TGI [21]: 2.73 µM | GI50 [22]: 0.175 µM | TGI [22]: 0.346 µM | GI50 [23]: 1.33 µM | TGI [23]: 2.74 µM | GI50 [24]: 0.592 µM | TGI [24]: 1.36 µM | GI50 [25]: 0.184 µM | TGI [25]: 0.408 µM | GI50 [26]: 0.655 µM | TGI [26]: 1.6 µM | GI50 [57]: 1.04 µM | TGI [57]: 2.44 µM | GI50 [27]: 0.515 µM | TGI [27]: 1.59 µM | GI50 [28]: 5.85 µM | TGI [28]: 14.1 µM | GI50 [29]: 1.13 µM | TGI [29]: 2.79 µM | GI50 [30]: 1.8 µM | TGI [30]: 3.48 µM | GI50 [31]: 0.172 µM | TGI [31]: 0.437 µM | GI50 [32]: 2.62 µM | TGI [32]: 9.69 µM | GI50 [33]: 0.188 µM | TGI [33]: 0.355 µM | GI50 [34]: 0.216 µM | TGI [34]: 0.592 µM | GI50 [35]: 1.83 µM | TGI [35]: 3.43 µM | GI50 [36]: 1.57 µM | TGI [36]: 3.44 µM | GI50 [37]: 1.57 µM | TGI [37]: 3.29 µM | GI50 [38]: 1.25 µM | TGI [38]: 4.54 µM | GI50 [39]: 0.885 µM | TGI [39]: 2.22 µM | GI50 [40]: 1.7 µM | TGI [40]: 3.47 µM | GI50 [41]: 1.73 µM | TGI [41]: 3.18 µM | GI50 [42]: 1.8 µM | TGI [42]: 3.22 µM | GI50 [43]: 1.53 µM | TGI [43]: 3.2 µM | GI50 [44]: 1.71 µM | TGI [44]: 3.16 µM | GI50 [45]: 1 µM | TGI [45]: 2.37 µM | GI50 [46]: 5.45 µM | TGI [46]: 18.3 µM | GI50 [58]: 0.345 µM | TGI [58]: 0.865 µM | GI50 [47]: 1.78 µM | TGI [47]: 3.32 µM | GI50 [48]: 1.68 µM | TGI [48]: 3.6 µM | GI50 [50]: 0.276 µM | TGI [50]: 0.766 µM | GI50 [51]: 0.243 µM | TGI [51]: 0.779 µM | GI50 [52]: 0.831 µM | TGI [52]: 2.12 µM | GI50 [53]: 1.57 µM | TGI [53]: 2.97 µM | GI50 [54]: 0.941 µM | TGI [54]: 2.28 µM | GI50 [55]: 1.5 µM | TGI [55]: 2.95 µM | GI50 [56]: 1.45 µM | TGI [56]: 2.76 µM
